From ChEMBL document CHEMBL1201862, “PubChem BioAssay data set” (2004)
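These data come from cells grown in 96-well plates and exposed to compound for 48 hours at five concentrations. GI50: concentration for 50% inhibition of growth.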 The source made the active and inactive calls. Rule as the data show it: active = GI50 up to about 1.1 µM and inactive = higher.

Assays:
Test in all cases: DTP human tumour cell line panel, 48 h
NCI/ADR-RES = test system: NCI/ADR-RES
Malme-3M = test system: Malme-3M
SK-MEL-2 = test system: SK-MEL-2
IGROV-1 = test system: IGROV-1
UACC-62 = test system: UACC-62
CAKI-1 = test system: CAKI-1
HOP-62 = test system: HOP-62
SN12C = test system: SN12C
OVCAR-5 = test system: OVCAR-5
KM12 = test system: KM12
OVCAR-8 = test system: OVCAR-8
LOX IMVI = test system: LOX IMVI
SF-268 = test system: SF-268
SR = test system: SR
HOP-92 = test system: HOP-92
SK-OV-3 = test system: SK-OV-3
SK-MEL-28 = test system: SK-MEL-28
COLO 205 = test system: COLO 205
UO-31 = test system: UO-31
SK-MEL-5 = test system: SK-MEL-5

Measured: GI50

CCN(CC)CCC(=O)c1ccc(Oc2ccc(F)cc2)cc1
inactive: NCI/ADR-RES 26.2 µM | Malme-3M 18.5 µM | SK-MEL-2 46.2 µM | IGROV-1 20.3 µM | UACC-62 17.9 µM | CAKI-1 17.1 µM | HOP-62 22.3 µM | SN12C 18.2 µM | OVCAR-5 17.9 µM | KM12 12.2 µM | OVCAR-8 22.9 µM | LOX IMVI 15.4 µM | SF-268 18.3 µM | SR 12.5 µM | HOP-92 18.3 µM | SK-OV-3 > 100 µM | SK-MEL-28 16.4 µM | COLO 205 19.2 µM

O=C(O)CCCc1nc2c(n1Cc1ccccc1)C(=O)c1ccccc1C2=O
inactive: NCI/ADR-RES 36.6 µM | Malme-3M 15.7 µM | SK-MEL-2 14.9 µM | IGROV-1 59.3 µM | UACC-62 17.2 µM | CAKI-1 > 100 µM | SN12C 36.9 µM | OVCAR-5 76.9 µM | KM12 43.7 µM | OVCAR-8 36.6 µM | LOX IMVI 40.4 µM | SF-268 26.1 µM | SR 44.7 µM | UO-31 > 100 µM | HOP-92 48.9 µM | SK-OV-3 > 100 µM | SK-MEL-28 > 100 µM | COLO 205 34.2 µM

CC(=O)Nc1cc2ccc(=O)oc2cc1Cl
inactive: NCI/ADR-RES > 100 µM | Malme-3M > 100 µM | SK-MEL-2 > 100 µM | IGROV-1 > 100 µM | UACC-62 > 100 µM | CAKI-1 > 100 µM | HOP-62 > 100 µM | SN12C > 100 µM | OVCAR-5 > 100 µM | KM12 > 100 µM | OVCAR-8 > 100 µM | LOX IMVI > 100 µM | SK-MEL-5 > 100 µM | SF-268 > 100 µM | SR > 100 µM | UO-31 > 100 µM | HOP-92 > 100 µM | SK-MEL-28 > 100 µM | COLO 205 > 100 µM

OCCN(CCO)c1ccc2c(c1)Cc1ccccc1-2
inactive: NCI/ADR-RES 46.8 µM | Malme-3M 60.7 µM | SK-MEL-2 26.7 µM | UACC-62 37.3 µM | CAKI-1 10.3 µM | HOP-62 73.5 µM | SN12C 52.1 µM | OVCAR-5 48.3 µM | KM12 38.3 µM | OVCAR-8 52.5 µM | LOX IMVI 29.9 µM | SK-MEL-5 35.7 µM | SF-268 26.2 µM | SR 29.6 µM | UO-31 31.9 µM | HOP-92 21.9 µM | SK-OV-3 50.6 µM | SK-MEL-28 64.3 µM | COLO 205 18.4 µM

CC(OC(=O)NCn1cc(-c2ccccc2)nn1)c1ccccc1 (centres undefined)
inactive: NCI/ADR-RES 33.7 µM | Malme-3M 30.3 µM | SK-MEL-2 37.8 µM | IGROV-1 35.4 µM | CAKI-1 > 100 µM | HOP-62 > 100 µM | SN12C 97.1 µM | OVCAR-5 49.3 µM | KM12 37.7 µM | OVCAR-8 44.4 µM | LOX IMVI 75 µM | SK-MEL-5 17.3 µM | SR 30.2 µM | HOP-92 56.2 µM | SK-MEL-28 97.9 µM | COLO 205 34.6 µM

CC(=O)OCC1OC(n2cnc3nc(Br)[nH]c(=O)c32)C(OC(C)=O)C1OC(C)=O (centres undefined)
inactive: NCI/ADR-RES > 100 µM | Malme-3M > 100 µM | SK-MEL-2 > 100 µM | IGROV-1 > 100 µM | UACC-62 > 100 µM | CAKI-1 > 100 µM | HOP-62 > 100 µM | SN12C > 100 µM | OVCAR-5 > 100 µM | KM12 > 100 µM | OVCAR-8 > 100 µM | LOX IMVI > 100 µM | SK-MEL-5 > 100 µM | SF-268 > 100 µM | SR > 100 µM | UO-31 > 100 µM | HOP-92 > 100 µM | SK-OV-3 > 100 µM | COLO 205 > 100 µM

CO/N=C1\CC(NC(=O)CNC(=O)OC(C)(C)C)c2ccsc21 (centres undefined)
inactive: NCI/ADR-RES > 100 µM | Malme-3M > 100 µM | SK-MEL-2 > 100 µM | IGROV-1 > 100 µM | UACC-62 > 100 µM | CAKI-1 > 100 µM | HOP-62 > 100 µM | SN12C > 100 µM | OVCAR-5 > 100 µM | OVCAR-8 > 100 µM | LOX IMVI > 100 µM | SK-MEL-5 81.5 µM | SF-268 > 100 µM | SR > 100 µM | UO-31 > 100 µM | HOP-92 > 100 µM | SK-OV-3 > 100 µM | SK-MEL-28 > 100 µM | COLO 205 > 100 µM

O=C1/C(=C/c2cccc(Br)c2)Cc2ccccc21
inactive: NCI/ADR-RES 50.6 µM | Malme-3M > 100 µM | SK-MEL-2 28.8 µM | IGROV-1 16.8 µM | UACC-62 54.3 µM | CAKI-1 75.7 µM | HOP-62 44.6 µM | SN12C > 100 µM | OVCAR-5 > 100 µM | KM12 19.3 µM | OVCAR-8 78.9 µM | LOX IMVI 45.1 µM | SF-268 53.6 µM | SR 24.5 µM | UO-31 31.8 µM | HOP-92 24.8 µM | SK-OV-3 93.1 µM | SK-MEL-28 > 100 µM | COLO 205 32.1 µM

NCCN1C(=O)c2ccccc2C1(O)c1ccc(Cl)cc1 (centres undefined)
inactive: NCI/ADR-RES 37.4 µM | Malme-3M 14.1 µM | SK-MEL-2 16.5 µM | IGROV-1 19 µM | UACC-62 16.4 µM | CAKI-1 24.5 µM | HOP-62 24.2 µM | SN12C 35.2 µM | OVCAR-5 19.7 µM | KM12 16.9 µM | OVCAR-8 37.2 µM | LOX IMVI 16.6 µM | SK-MEL-5 16.4 µM | SF-268 27.1 µM | SR 17.9 µM | HOP-92 10.4 µM | SK-OV-3 24.4 µM | SK-MEL-28 17.6 µM | COLO 205 19.6 µM

COc1ccccc1N1C(=O)CSC1c1cccc(Oc2ccccc2)c1 (centres undefined)
inactive: NCI/ADR-RES 19.7 µM | Malme-3M 16.3 µM | SK-MEL-2 15.8 µM | UACC-62 14.9 µM | CAKI-1 23.8 µM | HOP-62 20.1 µM | SN12C 17.2 µM | OVCAR-5 18.5 µM | KM12 20.1 µM | OVCAR-8 17.9 µM | LOX IMVI 17.1 µM | SK-MEL-5 16.3 µM | SF-268 17.5 µM | SR 24.8 µM | UO-31 17.8 µM | HOP-92 12.7 µM | SK-OV-3 34.8 µM | SK-MEL-28 17.8 µM | COLO 205 18.6 µM

CC(=O)c1c(CO[N+](=O)[O-])[n+]([O-])c2ccccc2[n+]1[O-]
inactive: NCI/ADR-RES > 100 µM | Malme-3M 53.7 µM | SK-MEL-2 > 100 µM | IGROV-1 41.5 µM | UACC-62 35.7 µM | CAKI-1 > 100 µM | HOP-62 98.2 µM | SN12C 64.1 µM | OVCAR-5 > 100 µM | OVCAR-8 > 100 µM | LOX IMVI 58.5 µM | SK-MEL-5 68.1 µM | SF-268 > 100 µM | SR 43.9 µM | UO-31 70.6 µM | HOP-92 > 100 µM | SK-OV-3 > 100 µM | SK-MEL-28 72.1 µM | COLO 205 61 µM
